Reference: ChEMBL document CHEMBL1158121, “Antihyperglycemic activity and chemical constituents of Eysenhardtia platycarpa” (2006)

Test system: Rattus norvegicus
Experiment: Antihyperglycemic activity in Streptozotocin-induced diabetic Wistar rat assessed as decrease in blood glucose level at 31 mg/kg, po after 7 hrs
Format: functional
Design: scale not given: the % may be the effect or the level left

CC(=O)O[C@H]1CC[C@]2(C)[C@H]3CC=C4[C@@H]5CC(C)(C)CC[C@]5(C(=O)O)CC[C@@]4(C)[C@]3(C)CC[C@H]2C1(C)C [ACETYL OLEANOLIC ACID] was tested, and the Activity was -26.3%.
